Marks after values point to notes of the source that are not given here.
What was measured:
[1] = tested on: rat Vogel conflict test model; experiment: Rat Vogel conflict test model (anxiolytic action); type: in vivo; details: non-clinical models, PD-LID effect in 6-OHDA-lesioned rats
Description: The anxiolytic action was evaluated using a rat Vogel conflict test model, and the effect on PD-LID was evaluated in 6-OHDA-lesioned rats.

[2] = tested on: PD-LID rat model (6-OHDA-lesioned rats); experiment: Oral administration of tandospirone citrate on dyskinesia-like symptoms in PD-LID rat model; type: in vivo
Description: The behavior was observed and evaluated using the same method as Example 2. […] After 5 minutes, a levodopa containing solution was intraperitoneally administered, and the behavior was observed and evaluated. The results in the drawings are indicated in terms of mean value±standard error. The test results were statistically analyzed by comparison with the solvent administration group by Steel test using the total AIMs score in 3 hours and total AIMs score in 100 to 180 minutes as parameters. * indicates p<0.05, meaning that there is a significant difference. The dosage was described as a numerical value converted in terms of tandospirone free form.

[3] = tested on: PD-LID rat model (6-OHDA-lesioned rats); experiment: ON-time prolongation action (ON score, ON time without dyskinesia) in PD-LID rat model; type: in vivo; details: oral 100 mg/kg as citrate
Description: To make a PD-LID rat model, a mixture of levodopa methyl ester hydrochloride (6 mg/kg; Sigma-Aldrich) dissolved in saline and benserazide hydrochloride (15 mg/kg; Sigma-Aldrich) (hereinafter, also referred to as “levodopa containing solution”) was intraperitoneally administered once daily to 6-OHDA-lesioned rats. The levodopa containing solution was repeatedly administered for 3 weeks or longer to observe and evaluate the behavior. […] The sum of the scores for Limb AIMs, Axial AIMs, and Orolingual AIMs in 3 hours was used as the total dyskinesia-like symptom (AIMs) score. Individuals with a total AIMs score of less than 10 were excluded from the test as not manifesting a dyskinesia-like symptom. The behavior was observed and evaluated before the drug evaluation date. The rats were assigned to each dosing group by using the 3 hour total dyskinesia-like symptom (AIMs) score, Locomotive behavior score, and rat body weight as indicators, which were used for evaluation of drugs. For an indicator of dyskinesia behavior, the sum of the Limb AIMs, Axial AIMs, and Orolingual AIMs at each evaluation point was used as the AIMs score. For the rotational behavior (ON score), Locomotive behavior at each evaluation point was used as an indicator. The total ON score in 3 hours was used as the total ON score. For ON time without dyskinesia, the period during which the AIMs score is 0 and Locomotive behavior is 1 or greater at each evaluation point was added. Duration of action of levodopa without a dyskinesia symptom (ON time without dyskinesia) refers to the aggregate time with no dyskinesia during the antiparkinsonian action effective time, i.e., “ON-time”, and defined as the time during which the dyskinesia symptom (AIMs) score is 0 and the rotational behavior (Locomotive behavior) score is 1 or greater at each evaluation point after levodopa administration. […] After 5 minutes, a levodopa containing solution was intraperitoneally administered, and the behavior was observed and evaluated. The results in the drawings are indicated in terms of mean value±standard error. The test results were statistically analyzed by comparison with the solvent administration group using the Steel test with the total ON score in 3 hours or ON time without dyskinesia as an indicator. ** indicates p<0.01, meaning that there is a significant difference. For evaluation of a tape agent, the abdominal regions of the rats were shaved prior to the evaluation date. […] After 4 hours from application, a levodopa containing solution was intraperitoneally administered to observe and evaluate the behavior. The results in the drawings are indicated in terms of mean value±standard error. Individuals with 50% or more of the tape agent coming off during the test were excluded from analysis. The test results were statistically analyzed by comparison with the placebo tape administration group using Wilcoxon rank sum test with the total ON score in 3 hours or ON time without dyskinesia as an indicator. * indicates p<0.05 and ** indicates […], meaning that there is a significant difference compared to the solvent oral administration group or the placebo tape administration group.

[4] = tested on: PD-LID rat model (6-OHDA-lesioned rats); experiment: Dyskinesia improving effect upon continuous subcutaneous infusion of tandospirone in PD-LID rat model; type: in vivo
Description: The behavior was observed and evaluated before the drug evaluation date. The rats were assigned to each dosing group by using the 3 hour AIMs score, Locomotive behavior score, and rat body weight as indicators, which were used for evaluation of drugs. However, individuals with a total AIMs score of less than 10 were excluded from the test as lacking manifestation of a dyskinesia-like symptom. Individuals with a body weight deviating 10% or more from the mean body weight were also excluded from the test to minimize variation in the dosage for each individual. […] The prepared solution was used after injection into an ALZET® Osmotic Pump MODEL 2ML1 (9.68 μL/hour; DURECT). […] After 4 hours, a levodopa containing solution was administered to observe and evaluate the behavior. […] The results in the drawings are indicated in terms of mean value±standard error. The test results were statistically analyzed by comparison with the solvent administration group by Steel test using the total AIMs score in 3 hours and the total AIMs score in 100 to 180 minutes as parameters. * indicates p<0.05, meaning that there is a significant difference.

dopamine 2 receptors = dopamine 2 receptors (Homo sapiens, UniProt P14416); details: in vitro; cited from earlier work
dopamine 2 receptors, sequence (P14416 whole entry): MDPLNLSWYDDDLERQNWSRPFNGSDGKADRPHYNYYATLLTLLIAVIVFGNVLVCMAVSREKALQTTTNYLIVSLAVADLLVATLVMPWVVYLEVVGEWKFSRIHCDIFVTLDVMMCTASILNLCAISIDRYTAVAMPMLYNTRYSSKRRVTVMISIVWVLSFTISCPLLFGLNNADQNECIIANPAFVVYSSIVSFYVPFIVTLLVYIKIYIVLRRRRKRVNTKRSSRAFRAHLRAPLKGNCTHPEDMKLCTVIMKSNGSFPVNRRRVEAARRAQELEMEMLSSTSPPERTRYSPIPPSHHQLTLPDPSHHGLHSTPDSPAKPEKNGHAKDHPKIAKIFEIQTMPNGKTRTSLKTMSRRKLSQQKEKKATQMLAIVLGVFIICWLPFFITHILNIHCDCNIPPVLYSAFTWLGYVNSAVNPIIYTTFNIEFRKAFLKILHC

[5] = oral 20 mg/kg as free form, FIGS. 7A-7C
[6] = oral 20 mg/kg as free form, FIGS. 8A-8L
[7] = continuous subcutaneous infusion 1.25 mg/kg/hour

O=C1[C@@H]2[C@H]3CC[C@H](C3)[C@@H]2C(=O)N1CCCCN1CCN(c2ncccn2)CC1 [tandospirone, (1R,2S,3R,4S)—N-[4-{4-(pyrimidine-2-yl)piperadine-1-yl}butyl]-2,3-bicyclo[2.2.1]heptanedicarboximide]
anxiolytic action compared with effect on PD-LID [1]: exerted at the same dosage | (i) Indicator of degree of improvement in dyskinesia symptom, in words ([2]; oral 6.7 mg/kg as free form): No improvement | (i) difference in total AIMs score in 3 hours (solvent minus tandospirone) ([2]; oral 6.7 mg/kg as free form): −3.1 | (ii) Indicator of rebound symptom of dyskinesia, in words ([2]; oral 6.7 mg/kg as free form): Exacerbating trend | (ii) difference in total AIMs score in 100 to 180 minutes (solvent minus tandospirone) ([2]; oral 6.7 mg/kg as free form): −3.5 | (i) Indicator of degree of improvement in dyskinesia symptom, in words ([2]; oral 20 mg/kg as free form): No improvement | (ii) Indicator of rebound symptom of dyskinesia, in words ([2]; oral 20 mg/kg as free form): Exacerbation | (i) difference in total AIMs score in 3 hours (solvent minus tandospirone) [2, 5]: −6.5(FIGS. 7A-7C) | (ii) difference in total AIMs score in 100 to 180 minutes (solvent minus tandospirone) [2, 5]: −9.1*(FIGS. 7A-7C) | (i) difference in total AIMs score in 3 hours (solvent minus tandospirone) [2, 6]: −8.6(FIGS. 8A-8L) | (ii) difference in total AIMs score in 100 to 180 minutes (solvent minus tandospirone) [2, 6]: −8.5*(FIGS. 8A-8L) | (i) Indicator of degree of improvement in dyskinesia symptom, in words ([2]; oral 67 mg/kg as free form): No improvement | (i) difference in total AIMs score in 3 hours (solvent minus tandospirone) ([2]; oral 67 mg/kg as free form): 2.9 | (ii) Indicator of rebound symptom of dyskinesia, in words ([2]; oral 67 mg/kg as free form): Exacerbation | (ii) difference in total AIMs score in 100 to 180 minutes (solvent minus tandospirone) ([2]; oral 67 mg/kg as free form): −10.1* | ON-time without dyskinesia for 180 minutes (Locomotive behavior ≥1, and AIMs score=0) [3]: prolongation of ON time without dyskinesia was observed only at a dose at which there is a risk of side effects | dyskinesia-like symptoms (total AIMs score in 180 minutes) vs solvent [4, 7]: significant improvement | total AIMs score in 100 to 180 minutes vs solvent [4, 7]: significant improvement | dyskinesia-like symptoms (total AIMs score in 180 minutes) ([4]; continuous subcutaneous infusion 0.05, 0.25, 1.25 mg/kg/hour, levodopa after 4 hours): dose-dependently improved dyskinesia-like symptoms | clear dyskinesia-like symptom (mean AIMs score of 2 or greater) at 120 to 140 minutes after levodopa administration ([4]; continuous subcutaneous infusion 0.05-1.25 mg/kg/hour): not found | rebound symptom ([4]; continuous subcutaneous infusion, any of the dosages): did not lead to a rebound symptom | affinity in receptor binding (dopamine 2 receptors): low affinity
